{
  "source": "patent US9855239B2",
  "about": "“Methods for the treatment and prevention of age-related retinal dysfunction” (University of Washington, priority 2008, dated 2018)",
  "key": {"C57BL/6 female mice [1]": {"tested_on": "C57BL/6 female mice", "assay": "Single-flash ERG after single dose treatment, bleach and dark adaptation", "assay_type": "in vivo, mouse", "details": "single dose ~80 mg/kg gavage, 10-month-old mice, 20 min bleach at 500 cd·m^−2, 16 hr dark adaptation; vs control (a-waves P<0.01)", "procedure": "(§1) Forty eight hr dark-adapted, 10-month-old mice were gavaged with a single dose (˜80 mg/kg body weight) of 9-cis-R-Ac or control vehicle and exposed to strong illumination for 20 min (500 cd·m^−2 that bleached ˜90% rhodopsin). Next, mice were dark-adapted for 16 hr after which various analyses were performed (FIG. 1A). […] To investigate whether 9-cis-retinal was utilized to form isorhodopsin and to assess how much unliganded opsin was present in the mouse eyes, rhodopsin, isorhodopsin and opsin were purified by immunoaffinity chromatography from treated and control groups of mice. […] After bleaching, 9-cis-retinal is bound to opsin even in the presence of a functional retinoid cycle that produces 11-cis-retinal to regenerate rhodopsin. Eyes from non-bleached or bleached and dark-adapted untreated mice contained a small amount of free opsin.\n9-cis-R-Ac was prepared as previously described (Batten, M. L., et al. PLoS medicine 2, e333 (2005); Batten, M. L., et al. J Biol Chem 279, 10422-10432 (2004)). A dose of ˜80 mg/kg body weight of 9-cis-R-Ac in 150 μl vegetable oil was administered via gavage to each treated animal. […]\n(§2) ERGs of anesthetized mice were recorded as previously reported."}, "[2]": {"assay": "Retinoid levels in eyes by HPLC, single dose", "assay_type": "in vivo, mouse", "procedure": "as §1\n9-cis-R-Ac was prepared as previously described (Batten, M. L., et al. PLoS medicine 2, e333 (2005); Batten, M. L., et al. J Biol Chem 279, 10422-10432 (2004)). A dose of ˜80 mg/kg body weight of 9-cis-R-Ac in 150 μl vegetable oil was administered via gavage to each treated animal. Prior to single dose experiments (FIG. 1A, Table 1), 10-month-old mice were dark-adapted for more than 48 hr, gavaged with 9-cis-R-Ac or vehicle control solution 1 hr before bleaching, exposed to light for 20 min at 500 cd·m^−2 and dark-adapted for 16 hr before analysis.\n(§3) All experimental procedures related to extraction, derivatization and separation of retinoids were carried out under dim red light provided by a Kodak No. 1 safelight filter (transmittance>560 nm) as described previously (Van Hooser, J. P., et al. Proceedings of the National Academy of Sciences of the United States of America 97, 8623-8628 (2000); Van Hooser, J. P., et al. J Biol Chem, 277, 19173-19182 (2002); Maeda, A., et al. J Biol Chem 280, 18822-18832 (2005); Van Hooser, J. P., Garwin, G. G. & Saari, J. C. Methods Enzymol 316, 565-575 (2000)). Eluted fractions of purified rhodopsin from 6 mouse eyes were combined (total 3.0 ml) and mixed with an equal volume of 100% methanol. The mixture was vortexed and incubated on ice for 15 min. Retinoids were extracted twice with an equal volume of 100% hexane (6 ml total). The combined extracts were dried under argon and retinoids were separated by normal phase HPLC (Beckman, Ultrasphere-Si, 5 μm, 4.6×250 mm) with 10% ethyl acetate and 90% hexane at a flow rate of 1.4 ml/min and detected at 325 nm by an HPI 100 HPLC with a diode array detector and HP Chemstation A.03.03 software. A2E was analyzed as previously described (Maeda, A., et al. J Biol Chem, 280, 18822-18832 (2005))."}, "C57BL/6 female mice [3]": {"tested_on": "C57BL/6 female mice", "assay": "Single flash ERG analyses after long-term treatment", "assay_type": "in vivo, mouse", "details": "for a- and b-wave amplitudes, scotopic and photopic single flash ERG: 80 mg/kg", "text": "To evaluate the effects of rod- and cone-mediated light responses after long-term 9-cis-R-Ac treatments, mice were examined by non-invasive ERG methods. The first set of analyses was done at 4 and 10 months of age. Under scotopic conditions, the amplitudes of a-waves decreased with age, especially at high flash intensities (C1 versus C0 group, FIG. 4A, left top panel), whereas the changes in b-waves were less evident (FIG. 4A, right top panel).\nThe second set of analyses was done at 14 months of age.\n(§4) Six groups of mice were studied (FIG. 1B).\n(§5) Two weeks after the last gavage with either, 9-cis-R-Ac, all-trans-R-Ac or vehicle, groups of 48 hr dark-adapted mice were analyzed for recovery of dark adaptation after light exposure, purified rhodopsin/opsin and retinoids in the eye and retinal morphology (FIG. 1C; Methods). Mice were exposed to light of intensity 500 cd·m^−2 that bleached ˜90% of rhodopsin, anesthetized and monitored by ERG for one hr to evaluate recovery of dark adaptation. Rhodopsin was purified and rhodopsin/opsin ratios was determined. Retinoid analyses were performed on dissected eyes removed at 0, 10, 30, and 60 min after exposure to the same amount of light. Mice used to evaluate retinal morphology were not exposed to photobleaching prior to analysis.\nas §2"}, "C57BL/6 female mice [4]": {"tested_on": "C57BL/6 female mice", "assay": "Recovery of ERG response (dark adaptation) after bleach, long-term treatment", "assay_type": "in vivo, mouse", "details": "500 cd·m^−2 for 3 min, 60 min dark adaptation", "procedure": "(§6) Recovery of the ERG response (dark adaptation) following bleach was measured by monitoring the amplitude of a-waves after retinal exposure to intense constant illumination (500 cd·m^−2, ˜90% bleached rhodopsin) for 3 min. […] Retinoid kinetics in the eyes of each group were quantitatively evaluated during 60 min of dark adaptation after 3 min of bleaching at four subsequent time points of dark adaptation (0, 10, 30, and 60 min). […] Neither 9-cis-retinal nor 9-cis-retinyl esters were found in eyes from untreated groups (data not shown).\nas §4, §5, §2"}, "[5]": {"assay": "Retinoid kinetics in the eyes during dark adaptation, long-term treatment", "assay_type": "in vivo, mouse", "details": "10 months of age, N1 vs C1, 60 min after the bleach (p<0.01)", "procedure": "as §6\nas §5, with “analysis. […]” for “analysis.”"}, "[6]": {"assay": "A2E accumulation in eyes after long-term treatment", "assay_type": "in vivo, mouse", "procedure": "To evaluate the safety of long-term administration of 9-cis-R-Ac, A2E accumulation was measured (FIG. 6A), because retinals spontaneously condense to this compound (Mata, N. L., Weng, J. & Travis, G. H. Proceedings of the National Academy of Sciences of the United States of America 97, 7154-7159 (2000); Parish, C. A., Hashimoto, M., Nakanishi, K., Dillon, J. & Sparrow, J. Proceedings of the National Academy of Sciences of the United States of America 95, 14609-14613 (1998)).\nas §3, with “Eluted fractions of purified rhodopsin from 6 mouse eyes were combined (total 3.0 ml) and mixed with an equal volume of 100% methanol. The mixture was vortexed and incubated on ice for 15 min. Retinoids were extracted twice with an equal volume of 100% hexane (6 ml total).” left out, “A2E was analyzed as previously described (Maeda, A., et al. J Biol Chem, 280, 18822-18832 (2005)).” left out"}, "[7]": {"details": "mouse, in vivo", "experimental": "(§7) Animals were evaluated weekly for activity and changes in coat and skin appearance.\n(§8) For the long-term study (FIGS. 1B and 1C, Table 1), mice were obtained at 3 months of age and raised until 4 months of age before the experiments were initiated. Mice then were gavaged with 9-cis-R-Ac or vehicle solution once a month for different durations. Six groups of mice were studied (FIG. 1B). The first 3 groups (C0 C1 and C2, total n=35 for each group) were treated as controls and tested at 4, 10 and 14 months of age. The other 3 groups (N1, N2 and N3, n=35) were gavaged with 9-cis-R-Ac. Group N1 was gavaged for 6 months and tested at 10 months of age. Group N2 was gavaged with 9-cis-R-Ac for 10 months and tested at 14 months of age. Group N3, was gavaged with vehicle until 10 months of age and then received 9-cis-R-Ac monthly until testing at 14 months of age."}, "[8]": {"tested_on": "Lrat−/− and Rpe65−/− knockout mice", "details": "gastric gavage, Lrat−/− mice; cited from earlier work"}, "[9]": {"assay": "Husbandry: activity, coat and skin appearance, body weight, tolerability", "experimental": "as §7, §8"}},
  "note": "“Also recorded” adds a separate entry of the source.",
  "data": [
    {"molecule": "CC(=O)OC/C=C(C)/C=C/C=C(C)\\C=C\\C1=C(C)CCCC1(C)C", "note": "[9-cis-R-Ac, 9-cis-retinyl acetate]", "values": [
      {"measurement": "functional a- and b-wave amplitudes, single-flash ERG", "setting": "C57BL/6 female mice [1]", "result": "slightly increased"},
      {"measurement": "9-cis-retinal in eyes", "setting": "[2]; exposed to intense light, treated mice", "result": "Significant amounts of 9-cis-retinal were detected; also recorded: detected only in the eyes of 9-cis-R-Ac treated mice"},
      {"measurement": "9-cis-retinyl esters in eyes (RPE)", "setting": "[2]; treated and exposed to intense light", "result": "significant amount of 9-cis-retinyl esters; also recorded: easily detectable; also recorded: detected only in the eyes of 9-cis-R-Ac treated mice"},
      {"measurement": "amounts of 11-cis-retinal and all-trans-retinyl esters in eyes", "setting": "[2]; treated vs control", "result": "not significantly affected; also recorded: similar"},
      {"measurement": "9-cis-retinal in eyes", "setting": "[2]; unbleached treated mouse eyes", "result": "Only trace amounts"},
      {"measurement": "a- and b-wave amplitudes, scotopic and photopic single flash ERG", "setting": "C57BL/6 female mice [3]; 10 months of age, monthly gavage ~80 mg/kg for 6 months (N1 vs C1), high flash strengths, except a-waves under photopic conditions", "result": "slight improvement; also recorded: significantly improved; also recorded: increased significantly"},
      {"measurement": "sensitivities and maximal a-wave amplitudes estimated from a-wave maximal responses", "setting": "C57BL/6 female mice [3]; 14 months of age, dark-adapted mice, treated vs control", "result": "not to be significantly different"},
      {"measurement": "a- and b-wave amplitudes, scotopic and photopic single flash ERG", "setting": "C57BL/6 female mice [3]; 14 months of age, monthly gavage ~80 mg/kg (9-cis-R-Ac: N2 and N3), vs control C2", "result": "No significant differences; also recorded: largely disappeared"},
      {"measurement": "recovery of ERG a-wave response (dark adaptation) after bleach", "setting": "C57BL/6 female mice [4]; 10 months of age, N1 vs C1", "result": "significantly faster; also recorded: significantly higher; also recorded: restored the rate of recovery to that seen in 4-month-old mice"},
      {"measurement": "recovery of ERG a-wave response (dark adaptation) after bleach", "setting": "C57BL/6 female mice [4]; 14 months of age, treated (9-cis-R-Ac: N2 and N3) vs C2", "result": "significantly faster; also recorded: significantly higher recovery rate"},
      {"measurement": "regeneration level of 11-cis-retinal in eyes", "setting": "[5]", "result": "significantly higher"},
      {"measurement": "amounts of A2E in eyes", "setting": "[6]; all experimental groups (C1, C2, N1, N2, N3), FIG. 6B", "result": "did not differ significantly among all groups with the exception of N3, where they were slightly lower"},
      {"measurement": "A2E and iso-A2E levels in eyes", "setting": "[6]; long-term treatment, treated vs control at 10 and 14 months of age", "result": "did not accumulate"},
      {"measurement": "tolerability of long-term treatment", "setting": "[7]", "result": "well tolerated"},
      {"measurement": "beneficial effects compared with 9-cis-retinal", "setting": "[8]", "result": "same beneficial effects as 9-cis-retinal"},
      {"measurement": "activity and changes in coat and skin appearance", "setting": "[9]; evaluated weekly during the experimental period", "result": "No changes"},
      {"measurement": "body weights", "setting": "[9]; pre-treatment, 10 months and 14 months, control (C1-2) vs treated (N1-3)", "result": "no significant differences"}
    ]}
  ]
}
